Measured values as given in ChEMBL document CHEMBL1201862, “PubChem BioAssay data set” (2004).
Calls of active or inactive are those of the source.

Key:
[1] = Luminescence Cell-Based Dose Retest to Confirm Inhibitors of Cancer Stem Cells. [Related pubchem assays (depositor defined):AID2717, AID2721]; assay type: functional; conditions: Homo sapiens
[2] = viability loss of HMLE_sh_eGFP cells – cell-based, luminescence, counter-screen for HMLE_sh_ECad selective toxicity project, dose response (AID 463074); assay type: functional, Homo sapiens;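 also: HMLE human mammary epithelial cells expressing control shRNA against eGFP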
[3] = target: Potassium voltage-gated channel subfamily KQT member 2 (Rattus norvegicus, UniProt O88943); experiment: blockers of KCNQ2 channel current – cell-based, automated electrophysiology, set II, rat KCNQ2, dose response (AID 588637); assay type: functional
[4] = test system: Escherichia coli; experiment: microbe, parasite or virus in culture
[5] = restored growth of temperature-sensitive Burl-1 yeast – whole organism, S. cerevisiae, Burl-1 ts mutant, luminescence, counter-screen for SUMOylation pathway inhibitor project, dose response (AID 463199); assay type: functional
[6] = target: Beta Lactamase (Pseudomonas aeruginosa, UniProt Q932Y6);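 also: confirmatory high-throughput screen measuring VIM-2 metallo-beta-lactamase inhibition by epi-absorbance in dose response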
[7] = target: ORF 73 (Human herpesvirus 8, UniProt O40947); experiment: KSHV LANA DNA-binding disruption – biochemical, fluorescence polarization, cherry-picked samples, dose response (AID 504725); set-up: species or system Human gammaherpesvirus 8;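 also: fluorescence polarization of a labeled DNA duplex reporting LANA DNA binding; potency is for inhibitors that block LANA binding to the DNA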
[8] = target: UDP-galactopyranose mutase (Mycobacterium tuberculosis, UniProt P9WIQ1); experiment: Inhibitors of Mycobacterium tuberculosis UDP-galactopyranose mutase (UGM) enzyme Measured in Biochemical System Using Plate Reader - 2105-02_Inhibitor_Dose_CherryPick_Activity. [Related pubchem assays (depositor defined):AID504439]
[9] = target: T1, Insulin-degrading enzyme (Homo sapiens, UniProt P14735); experiment: recombinant IDE activation, cell-free – biochemical, fluorescence polarization, counter-screen for IDE activator project, dose response (AID 588681)
T1 sequence (P14735 whole entry): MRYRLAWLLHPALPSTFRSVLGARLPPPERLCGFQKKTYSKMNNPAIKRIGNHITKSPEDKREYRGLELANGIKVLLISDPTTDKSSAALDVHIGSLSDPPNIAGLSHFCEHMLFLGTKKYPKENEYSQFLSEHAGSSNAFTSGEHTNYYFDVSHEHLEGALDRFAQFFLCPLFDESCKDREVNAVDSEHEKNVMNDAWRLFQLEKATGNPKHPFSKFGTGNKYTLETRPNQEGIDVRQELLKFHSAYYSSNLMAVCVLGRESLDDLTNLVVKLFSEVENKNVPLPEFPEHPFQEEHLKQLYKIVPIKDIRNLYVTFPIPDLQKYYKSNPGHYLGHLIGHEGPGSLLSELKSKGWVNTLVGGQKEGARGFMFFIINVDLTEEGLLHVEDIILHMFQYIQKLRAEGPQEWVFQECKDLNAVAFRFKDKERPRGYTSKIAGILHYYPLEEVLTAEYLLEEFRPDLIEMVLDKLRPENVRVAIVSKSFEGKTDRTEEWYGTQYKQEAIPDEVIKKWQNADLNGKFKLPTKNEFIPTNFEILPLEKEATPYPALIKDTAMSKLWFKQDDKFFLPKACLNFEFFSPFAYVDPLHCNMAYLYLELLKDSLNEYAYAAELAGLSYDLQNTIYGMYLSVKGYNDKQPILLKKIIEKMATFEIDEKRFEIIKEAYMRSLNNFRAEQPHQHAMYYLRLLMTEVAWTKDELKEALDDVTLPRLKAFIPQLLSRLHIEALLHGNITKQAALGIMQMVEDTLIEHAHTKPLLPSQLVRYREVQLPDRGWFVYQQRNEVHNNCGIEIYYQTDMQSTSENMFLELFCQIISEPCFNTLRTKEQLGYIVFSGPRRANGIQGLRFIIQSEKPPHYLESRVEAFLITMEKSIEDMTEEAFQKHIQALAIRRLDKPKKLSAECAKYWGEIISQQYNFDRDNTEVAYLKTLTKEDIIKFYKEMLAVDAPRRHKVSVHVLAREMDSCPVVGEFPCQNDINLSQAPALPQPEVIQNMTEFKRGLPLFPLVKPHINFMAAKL

[10] = target: T1, Insulin-degrading enzyme; experiment: cellular IDE activation of Abeta substrate cleavage – fluorescence polarization, HEK cells, dose response (AID 588439); assay type: functional, cell-based
[11] = test system: HEK293; experiment: membrane integrity loss in HEK cells – cell-based, fluorescence, cytotoxicity control for IDE activator project, dose response (AID 588440); assay type: functional; conditions: Homo sapiens;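 also: cytotoxicity by LDH release measuring loss of membrane integrity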
[12] = test system: HEK293; experiment: optical interference in Abeta FP readout, dose response, artefact control for IDE activator project, biochemical, fluorescence polarization (AID 588442); assay type: functional, cell-based; conditions: Homo sapiens
[13] = viability loss in HepG2 liver cells – cell-based, ATP luminescence, cherry-pick, set 6, cytotoxicity control, dose response (AID 1053125); assay type: functional
[14] = rescue of ΔF508 CFTR function, airway epithelium – human bronchial epithelial cells, plate reader, cherry-pick, two tests, dose response (AID 743267); assay type: functional, cell-based
[15] = cells; conditions: A549
[16] = test system: Escherichia coli; experiment: microbe, parasite or virus in culture; remark: listed apart in the source
[17] = test system: HEK293; experiment: cells; conditions: Homo sapiens
[18] = test system: HEK293; experiment: cells; conditions: Homo sapiens; remark: listed apart in the source
[19] = test system: HEK293; experiment: HEK293T cell viability loss, resazurin readout – resazurin fluorescence, cytotoxicity control for NF-kB activator project, SAR follow-up (AID 493251); assay type: functional, cell-based; conditions: Homo sapiens
[20] = test system: Jurkat; experiment: SAR Analysis of small molecule inhibitors of T-cell specific antigen receptor-induced NF-kB activation in a Jurkat cell line using a luminescence assay - Set 2. [Related pubchem assays (depositor defined):AID435003, AID435012, AID465]; assay type: functional, cell-based; conditions: Homo sapiens
[21] = test system: HEK293; experiment: SAR Analysis of small molecule inhibitors of T-cell specific antigen receptor-induced NF-kB activation in a HEK-293T cell line using a luminescence assay - Set 2. [Related pubchem assays (depositor defined):AID435003, AID435012, AID489026]; assay type: functional, cell-based; conditions: Homo sapiens
[22] = luciferase reporter signal suppression in cells – H4 neuroglioma cells, luminescence, dose response (AID 1990); assay type: functional, cell-based
[23] = luciferase reporter signal reduction – luminescence, H4-C neuroglioblastoma cells, dose response (AID 2458); assay type: functional, cell-based;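 also: H4 neuroglioblastoma cells stably carrying a luciferase reporter gene fusion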
[24] = test system: BJ; experiment: BJ-TERT fibroblast viability loss – cell-based, RAS-independent, luminescence, dose response (AID 1933); assay type: functional; conditions: Homo sapiens
[25] = cells; assay type: functional, cell-based
[26] = Luminescence Cell-Based Dose Response HTS to Identify Inhibitors of 5'UTR Stem-Loop Driven Prion Protein mRNA Translation in H4 Neuroglioblastoma Cells. [Related pubchem assays: 1827 (Project Summary), 1813 (Primary HTS)]; assay type: functional
[27] = target: T2, Heat shock factor protein 1 (Mus musculus, UniProt P38532); experiment: decrease of HSF1-responsive luciferase luminescence – cell-based, NIH3T3, dose retest, confirmation (AID 2382); assay type: functional;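 also: NIH3T3 fibroblasts with HSF1-driven luciferase reporter stressed by proteasome inhibitor MG132; luminescence from HSF1-driven luciferase expression after 8 hours of MG132 stress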
T2 sequence (P38532 whole entry): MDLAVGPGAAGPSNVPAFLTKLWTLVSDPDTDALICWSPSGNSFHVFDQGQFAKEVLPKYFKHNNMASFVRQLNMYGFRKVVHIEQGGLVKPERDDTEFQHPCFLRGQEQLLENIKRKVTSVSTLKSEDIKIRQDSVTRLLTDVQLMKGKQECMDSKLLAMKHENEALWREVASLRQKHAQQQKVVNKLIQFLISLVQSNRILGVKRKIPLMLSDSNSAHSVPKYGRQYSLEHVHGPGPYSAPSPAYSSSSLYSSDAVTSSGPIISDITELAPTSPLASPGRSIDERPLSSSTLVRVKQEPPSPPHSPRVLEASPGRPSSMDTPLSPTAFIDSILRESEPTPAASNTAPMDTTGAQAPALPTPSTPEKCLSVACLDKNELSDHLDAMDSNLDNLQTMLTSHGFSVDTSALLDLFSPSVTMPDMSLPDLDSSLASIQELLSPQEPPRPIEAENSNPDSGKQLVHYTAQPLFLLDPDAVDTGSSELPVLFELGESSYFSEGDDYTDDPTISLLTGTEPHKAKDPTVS

[28] = alpha-synuclein stem-loop luciferase translation blockers – H4 neuroglioma cells, luminescence, confirmation (AID 1988); assay type: functional, cell-based
[29] = test system: BJ; experiment: cells; assay type: functional, cell-based; conditions: Homo sapiens
[30] = target: Luciferin 4-monooxygenase (Photinus pyralis, UniProt P08659); experiment: inhibition of purified Photinus pyralis luciferase – biochemical, luminescence, dose response (AID 1891)
[31] = Luminescence Cell-Based Dose Confirmation HTS to Identify Inhibitors of Platelet Dense Granule Release. [Related pubchem assays: 1663 (Primary HTS), 1678 (Summary of Project)]; assay type: functional
[32] = test system: BJ; experiment: BJ-TERT-LT-ST fibroblast viability loss – cell-based, RAS-independent, luminescence, dose response (AID 1935); assay type: functional; conditions: Homo sapiens;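 also: BJ fibroblasts immortalized with TERT plus LT and ST oncogenes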
[33] = DRD fibroblast viability loss – cell-based, non-viral oncogenic, luminescence, dose response (AID 1934); assay type: functional; conditions: Homo sapiens
[34] = alpha-synuclein stem-loop translation blockers – luminescence, H4 neuroglioblastoma cells, dose confirmation, confirmation (AID 2454); assay type: functional, cell-based;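 also: H4 neuroglioblastoma cells carrying an alpha-synuclein 5'UTR luciferase reporter; potency for inhibition of the luciferase signal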
[35] = test system: Jurkat; experiment: blockers of NF-kB activation in T cells – Jurkat, luciferase reporter, luminescence, B- and T-cell, dose response (AID 489004); assay type: functional, cell-based; conditions: Homo sapiens;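 also: NF-kB luciferase reporter Jurkat cells stimulated with PMA plus ionomycin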
[36] = HEK-293T viability loss, compound-treated – cell-based, uHTS hits, cytotoxicity control for B/T-cell NF-kB inhibitor project, dose response (AID 489019); assay type: functional;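 also: IC50 reflects cytotoxicity as loss of cell viability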
[37] = test system: BJ; experiment: growth inhibition of engineered Ras-driven BJ cells – cell-based, alamar blue fluorescence, cherrypicked samples, dose response (AID 2631); assay type: functional; conditions: Homo sapiens;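 also: confirmatory dose-response assay in RAS-dependent BJ fibroblasts engineered with TERT, LT and ST, with cytotoxicity read by fluorescence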
[38] = test system: INS1; experiment: INS-1E survival protection against cytokine death – cell-based, luminescence, retest, dose response (AID 449756); assay type: functional; conditions: Rattus norvegicus;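 also: cell death triggered by IL-1 beta plus TNF-alpha plus IFN-gamma mixture; protective hits raise ATP signal compared with cytokine alone wells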
[39] = blockers of HIV-1 envelope-mediated cell-cell fusion – cherry-pick, dose response (AID 652057); assay type: functional, cell-based
[40] = viability loss in CEM21 cells – cell-based, CellTiter-Glo luminescence, cherry-picked, cytotoxicity control for viral fusion inhibitor project, dose response (AID 652042); assay type: functional;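 also: potency for signal decrease meaning cytotoxicity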
[41] = blockers of HIV-1 ZM109 envelope-driven cell-cell fusion – HeLa effector, CEM target cells, luciferase, cherry-pick, dose response (AID 652058); assay type: functional, cell-based;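 also: luciferase signal from HIV-1 Env mediated cell-cell fusion of effector and target cells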
[42] = off-target signal loss in HeLa-CEM21 co-culture – HeLa F-luc CTL cells, cherry-picked, counter-screen for HIV-1 Env fusion inhibitor project, dose response (AID 652040); assay type: functional, cell-based;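 also: potency for signal decrease marking cytotoxic or nonspecific inhibition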
[43] = HIV-1 AD8 envelope cell-cell fusion blockers – cherry-pick, dose response (AID 652062); assay type: functional, cell-based;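 also: luciferase signal from cell-cell fusion driven by HIV-1 clade B AD8 Env; potency is for inhibitors of fusion seen as a drop in luminescence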

Potassium voltage-gated channel subfamily KQT member 2, sequence (O88943 whole entry): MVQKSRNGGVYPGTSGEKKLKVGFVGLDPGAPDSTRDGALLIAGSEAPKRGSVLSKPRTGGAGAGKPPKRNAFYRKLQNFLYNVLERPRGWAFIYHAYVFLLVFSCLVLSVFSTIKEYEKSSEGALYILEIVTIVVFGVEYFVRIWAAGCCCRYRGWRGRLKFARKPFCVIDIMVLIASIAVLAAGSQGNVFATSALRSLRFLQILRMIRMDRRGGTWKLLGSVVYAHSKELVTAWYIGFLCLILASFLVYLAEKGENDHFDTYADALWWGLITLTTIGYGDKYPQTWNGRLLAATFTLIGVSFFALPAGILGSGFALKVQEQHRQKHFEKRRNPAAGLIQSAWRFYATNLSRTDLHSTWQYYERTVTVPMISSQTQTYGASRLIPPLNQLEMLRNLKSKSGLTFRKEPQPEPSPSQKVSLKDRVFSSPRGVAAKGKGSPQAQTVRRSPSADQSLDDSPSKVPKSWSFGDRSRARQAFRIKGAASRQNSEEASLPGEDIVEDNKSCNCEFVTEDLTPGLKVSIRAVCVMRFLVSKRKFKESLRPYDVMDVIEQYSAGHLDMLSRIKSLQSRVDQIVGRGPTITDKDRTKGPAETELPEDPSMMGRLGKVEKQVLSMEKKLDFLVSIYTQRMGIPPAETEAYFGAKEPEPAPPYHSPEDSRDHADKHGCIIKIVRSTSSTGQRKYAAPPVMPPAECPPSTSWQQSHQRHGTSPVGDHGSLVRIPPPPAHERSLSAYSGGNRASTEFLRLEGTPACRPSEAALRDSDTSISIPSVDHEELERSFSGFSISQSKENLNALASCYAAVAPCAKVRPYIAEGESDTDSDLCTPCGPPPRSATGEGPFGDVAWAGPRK
UDP-galactopyranose mutase, sequence (P9WIQ1 whole entry): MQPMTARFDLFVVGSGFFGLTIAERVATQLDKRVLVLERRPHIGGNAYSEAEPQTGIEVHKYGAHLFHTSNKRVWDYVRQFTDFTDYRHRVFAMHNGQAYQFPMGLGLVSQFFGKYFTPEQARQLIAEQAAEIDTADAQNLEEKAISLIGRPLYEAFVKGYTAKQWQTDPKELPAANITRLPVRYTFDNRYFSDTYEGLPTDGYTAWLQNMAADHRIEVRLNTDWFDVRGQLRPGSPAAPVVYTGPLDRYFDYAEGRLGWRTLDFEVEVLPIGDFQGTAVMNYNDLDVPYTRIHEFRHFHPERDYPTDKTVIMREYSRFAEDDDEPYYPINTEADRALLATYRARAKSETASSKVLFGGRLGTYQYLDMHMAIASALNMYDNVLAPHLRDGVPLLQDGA
ORF 73, sequence (O40947 whole entry): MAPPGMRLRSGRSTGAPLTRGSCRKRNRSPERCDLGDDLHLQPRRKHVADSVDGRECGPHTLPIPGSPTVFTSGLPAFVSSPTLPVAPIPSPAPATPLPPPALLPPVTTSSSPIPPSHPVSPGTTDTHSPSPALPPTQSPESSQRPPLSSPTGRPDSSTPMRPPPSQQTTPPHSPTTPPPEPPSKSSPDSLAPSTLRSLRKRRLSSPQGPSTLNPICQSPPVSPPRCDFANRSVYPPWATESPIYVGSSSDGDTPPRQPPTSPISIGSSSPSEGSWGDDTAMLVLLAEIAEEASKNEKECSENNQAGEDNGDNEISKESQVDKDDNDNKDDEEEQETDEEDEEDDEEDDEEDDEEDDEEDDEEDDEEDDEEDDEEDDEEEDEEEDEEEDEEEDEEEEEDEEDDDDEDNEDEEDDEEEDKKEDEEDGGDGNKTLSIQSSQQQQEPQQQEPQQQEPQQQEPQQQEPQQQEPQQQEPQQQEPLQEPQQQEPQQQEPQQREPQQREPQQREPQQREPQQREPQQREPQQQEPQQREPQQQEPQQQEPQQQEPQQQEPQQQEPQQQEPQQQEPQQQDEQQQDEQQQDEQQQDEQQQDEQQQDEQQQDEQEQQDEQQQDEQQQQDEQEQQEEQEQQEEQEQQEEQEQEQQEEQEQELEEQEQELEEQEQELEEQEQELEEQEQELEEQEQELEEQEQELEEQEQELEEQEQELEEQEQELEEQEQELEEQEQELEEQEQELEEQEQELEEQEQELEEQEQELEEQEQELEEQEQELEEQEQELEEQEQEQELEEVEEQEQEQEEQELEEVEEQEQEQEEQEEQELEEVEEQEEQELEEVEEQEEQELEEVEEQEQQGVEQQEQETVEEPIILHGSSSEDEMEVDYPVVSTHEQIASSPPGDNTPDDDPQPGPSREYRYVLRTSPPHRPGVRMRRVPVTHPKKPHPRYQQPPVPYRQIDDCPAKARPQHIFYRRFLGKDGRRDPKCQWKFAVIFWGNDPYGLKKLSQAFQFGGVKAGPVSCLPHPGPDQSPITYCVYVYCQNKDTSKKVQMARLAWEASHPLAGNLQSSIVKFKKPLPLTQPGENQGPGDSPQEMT
Luciferin 4-monooxygenase, sequence (P08659 whole entry): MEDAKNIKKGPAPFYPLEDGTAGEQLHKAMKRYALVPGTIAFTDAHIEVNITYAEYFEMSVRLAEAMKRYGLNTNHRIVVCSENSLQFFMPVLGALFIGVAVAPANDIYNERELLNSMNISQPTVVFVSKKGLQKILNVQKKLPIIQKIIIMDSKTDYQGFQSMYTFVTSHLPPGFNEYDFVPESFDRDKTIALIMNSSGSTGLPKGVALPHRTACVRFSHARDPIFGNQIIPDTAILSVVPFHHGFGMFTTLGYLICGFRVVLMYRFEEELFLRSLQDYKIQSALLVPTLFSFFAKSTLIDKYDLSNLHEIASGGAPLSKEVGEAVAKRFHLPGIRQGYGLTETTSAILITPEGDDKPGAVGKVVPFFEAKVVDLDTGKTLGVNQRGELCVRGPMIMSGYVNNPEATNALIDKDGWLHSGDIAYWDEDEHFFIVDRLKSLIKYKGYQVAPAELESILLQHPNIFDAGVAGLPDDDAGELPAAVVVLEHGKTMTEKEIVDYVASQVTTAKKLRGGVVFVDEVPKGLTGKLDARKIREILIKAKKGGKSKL
Beta Lactamase, sequence (Q932Y6 whole entry): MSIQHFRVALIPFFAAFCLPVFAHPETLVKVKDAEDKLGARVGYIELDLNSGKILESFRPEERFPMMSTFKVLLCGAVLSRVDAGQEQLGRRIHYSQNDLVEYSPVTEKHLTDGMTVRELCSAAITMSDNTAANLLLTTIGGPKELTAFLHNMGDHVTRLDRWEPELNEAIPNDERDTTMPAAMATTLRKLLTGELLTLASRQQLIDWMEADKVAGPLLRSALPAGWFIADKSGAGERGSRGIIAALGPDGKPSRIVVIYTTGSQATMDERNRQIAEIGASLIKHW

With COc1cccc(C(=O)NC(=S)Nc2ccccc2N2CCOCC2)c1 the AC50 [1] was 20.1 µM (active), the AC50 [2] was 33.5 µM (active) and the IC50 [3] was 6.01 µM (active).

With Cc1cc(Cl)ccc1NC(=O)CN1CCCC1 the AC50 [4] was 40 µM (active).

In the case of O=C(CSc1nnc(NC(=O)CN2CCOCC2)s1)Nc1ccccc1, the AC50 [5] was 47.5 µM (active).

For Nc1ccc2ccc3cccc[n+]3c2c1.[O-][Cl+3]([O-])([O-])[O-], the IC50 [6] was 9.33 µM (active), the AC50 [7] was 1.3 µM (active) and the AC50 [8] was 3.88 µM (active). The EC50 [9] was > 54.7 µM (inactive), the EC50 [10] was > 54.7 µM (inactive) and the IC50 [11] was > 89.2 µM (inactive). For the same compound, the EC50 [12] was 6.89 µM (active), the AC50 [13] was > 52 µM (inactive) and the AC50 [14] was 21.4 µM (active). For the same compound, the AC50 [15] was 27.3 µM (active).

For O=C(CCc1ccccc1)N1CCN(Cc2ccc(F)cc2Cl)CC1, the AC50 [16] was 66.5 µM (active).

With COc1ccc(CNCCc2c[nH]c3ccccc23)c(OC)c1OC the EC50 [17] was > 59.6 µM (inactive) and the EC50 [18] was > 59.6 µM (inactive).

With COc1ccc(C)cc1NC(=O)c1ccc([N+](=O)[O-])o1 the IC50 [19] was > 80 µM (inactive), the IC50 [20] was 6.03 µM (active) and the IC50 [21] was 75.6 µM (inactive).

In the case of Nc1nc(F)nc2c1ncn2[C@@H]1O[C@H](CO)[C@@H](O)[C@H]1O, the EC50 [22] was 0.242 µM (active), the EC50 [23] was 0.199 µM (active) and the EC50 [24] was 0.124 µM (active). The EC50 [25] was 0.084 µM (active), the EC50 [26] was < 0.1 µM (active) and the EC50 [27] was 5.46 µM (active). For the same compound, the EC50 [28] was < 0.1 µM (active), the EC50 [29] was 1.35 µM (active) and the EC50 [30] was > 112 µM (not active). The EC50 [31] was < 0.088 µM (active), the EC50 [32] was 0.46 µM (active) and the EC50 [33] was 0.674 µM (active). For the same compound, the EC50 [34] was 0.07 µM (active), the IC50 [35] was 2.35 µM (active) and the IC50 [36] was > 80 µM (inactive). For the same compound, the EC50 [37] was 0.348 µM (active), the AC50 [38] was 1.35 µM (active) and the AC50 [39] was 0.341 µM (active). For the same compound, the AC50 [40] was 0.271 µM (active), the AC50 [41] was < 0.26 µM (active) and the AC50 [42] was 1.4 µM (active). For the same compound, the AC50 [43] was 1.92 µM (active).
